Several values for one entry are separate records, joined by “and”; a condition that tells them apart may be missing. Equal entries are not always repeated.
Legend:
[1] = test system: E2 gene of bovine papilloma virus type 1 (BPV-1); experiment: E2 transactivation assay (pE2RE-1-CAT) in I-38 cells; format: cell-based, bovine papilloma virus-1; details: I-38 cells transfected with pE2RE-1-CAT, harvested after 48 hours; lower = more inhibition; listed as positive control compound
[2] = test system: MDR1 mRNA; experiment: MDR1 mRNA expression by Northern blotting in MDR 3T3 cells; format: cell-based, human; details: for MDR1 mRNA Level (arbitrary units) / % Control (MDR1 mRNA): oligonucleotide 1 μm, with Lipofectin; for MDR1 mRNA Level (arbitrary units): serum free medium; for % Control (MDR1 mRNA): control = untreated cells
Experimental: NIH 3T3 cells transfected with a plasmid containing the human MDR1 gene (pSK1 MDR) have been previously described (Kane et al., Gene, 1989, 84, 439). These cells have proven to be useful models for the study of multi-drug resistance phenomena. Cells were grown in DMEM media containing 10% fetal bovine serum (FBS) and 60 ng/ml colchicine in an atmosphere of 95% air, 5% CO2.
Cells were grown in […] flasks.
To measure MDR1 mRNA expression by Northern blotting, total cellular RNA was isolated by lysis in 4M guanidium isothiocyanate followed by a cesium chloride gradient, and the RNA was resolved on 1.2% agarose gels containing 1.2% formaldehyde and transferred to nitrocellulose membranes (Dean et al., J. Biol. Chem., 1994, 269, 16416). The blots were hybridized with a ^32P radiolabeled human MDR1 cDNA probe. The MDR1 cDNA probe was isolated by performing a polymerase chain reaction on the pSK1 MDR plasmid, as described previously (Alahari et al., Nucl. Acids Res., 1993, 21, 4079). The following oligonucleotide primers were used for PCR: […]
The resulting fragment was checked on an agarose gel and was radiolabeled with ^32P-dCTP using a commercially available random primer labeling kit (Amersham, Arlington Heights, Ill.) according to the manufacturer's instructions. The filters were hybridized overnight in hybridization buffer (25 mM KPO4, pH 7.4; 5×SSC; 5×Denhardt's solution, 100 ug/ml Salmon sperm DNA and 50% formamide) (Alahari et al., Nucl. Acids Res., 1993, 21, 4079). This was followed by two washes with 1×SSC, 0.1% SDS and two washes with 0.25×SSC, 0.1% SDS. Hybridizing bands were visualized by exposure to X-OMAT AR film and quantitated using a PhosphorImager™ (Molecular Dynamics, Sunnyvale, Calif.). To confirm equal loading of RNA, the blots were stripped and reprobed with a ^32P-labeled beta-actin probe (Clontech, Palo Alto, Calif).
In initial experiments, the MDR 3T3 cells were exposed to 1.0 μm concentrations of several different antisense oligonucleotides, or control oligonucleotides, in the presence of 20 ug/ml LIPOFECTIN® for 24 hours. […] NIH 3T3 cells transfected with pSK1 MDR plasmid were grown to 90% confluence and treated with oligonucleotide (1 μm) for 24 hours in the presence of Lipofectin® in serum free medium. Total RNA was isolated and fractionated on agarose formaldehyde gels and blotted onto nitrocellulose membranes. These membranes were probed with a ^32P radiolabeled 1.0 kb MDR1 cDNA, and then stripped and reprobed with a ^32P radiolabeled beta-actin cDNA probe to confirm equal loading of RNA, allowing the levels of MDR1 transcripts to be normalized with regard to the beta-actin bands. Transcript levels were quantitated using a PHOSPHORIMAGER™ (Molecular Dynamics, Sunnyvale, Calif.); the values are expressed in arbitrary units (the beta-actin transcripts were essentially constant).

[3] = test system: P-glycoprotein; experiment: P-glycoprotein expression by Western blotting in MDR 3T3 cells; format: cell-based, human; details: maximum only after 72 hours exposure
Experimental: Transfected MDR NIH 3T3 cells were grown and treated with oligonucleotides as described in Example (9)(B). In order to measure P-glycoprotein expression by Western blotting, cells were seeded in 60 mm dishes at 1.2×10^6 per dish and incubated for 24 hours in serum containing medium. The cells were treated with the oligomers for various times in serum free medium as described above. Cells were then extracted in lysis buffer (20 mM Tris, pH 7.5, 2 mM EDTA, 500 mM EGTA, 2 mM PMSF, 1 mM DTT, aprotonin (10 ug/ml), 0.5% Triton-X) and sonicated briefly. The lysate was spun in a microfuge tube for 20 minutes at 4° C. and the resulting supernatant was checked for protein content. Equal amounts of protein (usually 20 ug) were mixed with SDS sample buffer and boiled. Protein samples were separated by 8% SDS PAGE and the resolved proteins were electrophoretically transferred onto polyvinyllidene fluoride membranes (Millipore, Bedford, Mass.). The membranes were blocked (with 3% BSA, 2% non fat dry milk in PBS) and then treated with 2 ug/ml C219 anti-P-glycoprotein antibody (Signet, Dedham, Mass.). After washing three times with 0.1% Tween 20, the membranes were incubated with rabbit anti-mouse antibody (Cappel, Durham, N.C.). Immunoreactive proteins were visualized either by ECL (Enhanced Chemiluminescence, Amersham, Arlington Heights, Ill.) or with ^125I secondary antibodies.

[4] = test system: P-glycoprotein; experiment: Cell surface P-glycoprotein by immunofluorescent staining and flow cytometry in MDR 3T3 cells; format: cell-based, human; details: 1 μm administered with LIPOFECTIN, parallel experiment
Experimental: MDR 3T3 cells were treated with various concentrations of oligonucleotides ISIS 11073 (5′-cholesterol 5995), or ISIS 12064 (5′-cholesterol 10221; scrambled control) for 48 hours in serum free medium. The cells were recovered and stained with an anti-P-glycoprotein monoclonal antibody directed against a surface epitope, followed by a phycoerythrin-conjugated second antibody. The level of cell surface fluorescence in viable cells was quantitated using a flow cytometer; light scatter parameters were set so as to exclude non-viable cells. […] The results represent means and standard errors for 6 determinations.
Transfected MDR NIH 3T3 cells were grown and treated with oligonucleotides as described in Example (9)(B). MDR1 mRNA expression was measured by Northern blotting as described in Example (9)(C). In order to measure cell surface P-glycoprotein levels by flow cytometry, cells were seeded in 60 mm dishes at 1.2×10^6/plate in 5 ml of medium, grown for one day in 10% FBS/DMEM, and exposed to the oligomers in serum free medium. […] The level of R-PE fluorescence in viable cells (as determined by light scatter) was quantitated using the Cicero software application (Cytomation, Fort Collins, Co.) on a Becton Dickinson flow cytometer.

[5] = test system: multi-drug resistant 3T3 cells
[6] = test system: MDR1 mRNA; experiment: MDR1 mRNA expression by Northern blotting in MDR 3T3 cells; format: cell-based, human
[7] = test system: DNA complementary strand, Oligomer 40; experiment: Melting analysis (Tm) of 2′-O-pentylamino linker strand against DNA complementary strand; format: binding
Experimental: (§1) The test oligonucleotides (either the phosphodiester, phosphorothioate, cholic acid conjugated phosphodiester, cholic acid conjugated phosphorothioate or 5′-aminolink intermediate phosphodiester or phosphorothioate oligonucleotides of the invention or otherwise) and either the complementary DNA or RNA oligonucleotides were incubated at a standard concentration of 4 μM for each oligonucleotide in buffer (100 mM NaCl, 10 mM Na-phosphate, pH 7.0, 0.1 mM EDTA). Samples were heated to 90 degrees C. and the initial absorbance taken using a Guilford Response II spectro-photometer (Corning, Inc., Corning, N.Y.). Samples were then slowly cooled to 15° C. and then the change in absorbance at 260 nm was monitored during the heat denaturation procedure. The temperature was elevated 1 degree/absorbance reading and the denaturation profile analyzed by taking the 1st derivative of the melting curve. Data was also analyzed using a two-state linear regression analysis to determine the Tm's. The results of these tests are shown in Table 3 as are the HPLC retention times of certain of the test compounds.
(§2) Melting analysis was conducted as per the method of Procedure B(1)(b).

[8] = test system: RNA complementary strand, Oligomer 41; experiment: Melting analysis (Tm) of 2′-O-pentylamino linker strand against RNA complementary strand; format: binding
Experimental: as §1, §2

[9] = test system: mouse ICAM-1 mRNA; experiment: ICAM-1 mRNA levels in LPS-treated mice (Northern analysis); format: in vivo
Experimental: (§3) Mice were treated with oligonucleotides and examined as follows. […] Then, to induce ICAM-1 expression, bacterial lipopolysaccharide (LPS) was injected into the mice. After 2 hours, the mice were sacrificed, and particular organs, or specific portion thereof, were removed for further study. RNA was prepared from isolated, homogenized tissues essentially according to the guanidinium/CsCl purification method of Chirgwin et al. (Biochemistry, […], 18, 5294), electrophoresed and transferred to nylon membranes for hybridization studies (Northern analysis) according to methods well known in the art. In order to detect mouse ICAM-1 mRNA, a radiolabelled probe was prepared by random oligonucleotide-primed synthesis using a mouse ICAM-1 clone as a template. The blots were stripped and reprobed with a ^32P-labeled glyceraldehyde 3-phosphate dehydrogenase (G3PDH) probe (Clontech Laboratories, Inc., Palo Alto, Calif.) in order to confirm equal loading of RNA and to allow the levels of ICAM-1 transcripts to be normalized with regard to the G3PDH signals. Hybridizing bands were visualized by exposure to X-OMAT AR film and quantitated using a PHOSPHORIMAGER™ essentially according to the manufacturer's instructions (Molecular Dynamics, Sunnyvale, Calif.).

[10] = test system: c-raf mRNA; experiment: c-raf mRNA levels in murine liver (gene target specificity); format: in vivo, mouse; details: 10 mg/kg
Experimental: as §3
(§4) In similar experiments, the sequence (gene target) specificity of the 5′-cholesterol antisense oligonucleotide ISIS 8005 was examined.

[11] = test system: PECAM-1 mRNA; experiment: PECAM-1 mRNA levels in murine liver (gene target specificity); format: in vivo, mouse; details: 10 mg/kg
Experimental: as §3, §4

[12] = test system: ICAM-1 protein
[13] = Oligomer 38 versus unmodified Oligomer 39

5′-CTG-TCT-CCA-TCC-TCT-TCA-CT (CTGTCTCCATCCTCTTCACT; all phosphorothioate, sugars by position and methylation of C not given here) [Oligomer 42]
percent acetylation (chloramphenicol acetyl transferase) [1]: 29% and 30%

CAC-CAC-CCC-CCT-CGC-TGG-TC (CACCACCCCCCTCGCTGGTC; chemistry not given here) [ISIS 10221, reference compound]
MDR1 mRNA Level (arbitrary units) ([2]; 24 hours): 456,522 arbitrary units | % Control (MDR1 mRNA) ([2]; 24 hours): 96% | reduction of P-glycoprotein (Western assays) [3]: did not reduce P-glycoprotein expression | effect on P-glycoprotein surface expression [4]: less effective than an equivalent concentration of the cholesterol-conjugated analogs | non-specific effects at higher concentrations [5]: reduced beta-actin message levels and increased cytotoxicity | MDR1/beta-actin ratio ([6]; repeated experiments, laser densitometry of autoradiograms): 1.01

CCA-TCC-CGA-CCT-CGC-GCT-CC (CCATCCCGACCTCGCGCTCC; chemistry not given here) [ISIS 5995]
reduction in MDR1 message levels ([2]; 1.0 μm, 20 ug/ml LIPOFECTIN, 24 hours): about 50% | time to normal levels of MDR1 mRNA after return to medium without oligonucleotide ([2]; after 24 hours exposure): ≤ 24 h | reduction in MDR1 message at maximal specific effect ([2]; approximately 1.0 μm, 24 hours, LIPOFECTIN (FIG. 1)): approximately 60% | MDR1 mRNA Level (arbitrary units) ([2]; 24 hours): 226,087 arbitrary units | % Control (MDR1 mRNA) ([2]; 24 hours): 48% | reduction of P-glycoprotein (Western assays) [3]: at least 80% | effect on P-glycoprotein surface expression [4]: less effective than an equivalent concentration of the cholesterol-conjugated analogs | treatment time of maximum specific reduction of MDR1 mRNA ([6]; 1 μm, 24, 48 and 72 hours tested): 24 h | lowest concentration with some reduction in message levels ([6]; dose response 50-1000 nM, 24 hours, LIPOFECTIN): 100 nM

GGA*-CCG-GA*A*-GGT-A*CG-A*G (GGACCGGAAGGTACGAG; chemistry not fully specified) [Oligomer 38, A* = pentylamino functionality at 2′-position]
change in Tm (Δ38-39) DNA [7, 13]: (6.1) degrees | Tm DNA ([7]; against Oligomer 40, 4 μM each strand, 100 mM NaCl, 10 mM Phosphate, 0.1 mM EDTA, pH 7.0): 54.5 degrees centigrade | change in Tm (Δ38-39) RNA [8, 13]: (1.1) degrees | Tm RNA ([8]; against Oligomer 41, 4 μM each strand, 100 mM NaCl, 10 mM Phosphate, 0.1 mM EDTA, pH 7.0): 58.0 degrees centigrade

U*GC-ATC-CCC-CAG-GCC-ACC-AT [ISIS 8005]
reduction of hepatic ICAM-1 mRNA relative to LPS without oligonucleotide ([9]; liver, 30 mg/kg i.v. 24 and 2 hours prior to LPS): about 50% | reversal of LPS-mediated induction of ICAM-1 mRNA in the lung ([9]; lung samples, 30 mg/kg): neither ISIS 3082 nor its 5′-cholesterol conjugate ISIS 8005 was able to reverse the LPS-mediated induction of ICAM-1 to any great degree | effect on c-raf mRNA levels [10]: no effect | effect on PECAM-1 mRNA levels [11]: no effect | ICAM-1 staining of liver sections ([12]; LPS-induced livers, HRP-conjugated secondary antibodies): virtually indistinguishable | overall cellular structure of liver ([12]; mouse, in vivo): no gross cellular defects
